In publication PMC6312923 (Life Science Alliance, 2018):

B1: Cdt2^PIP-3A: Cdt2 with I709, Y712, and F713 all mutated to alanine (protein, UniProt Q9NZJ0 1-730, looked up, variant I709A Y712A F713A)
Denticleless protein homolog: MLFNSVLRQPQLGVLRNGWSSQYPLQSLLTGYQCSGNDEHTSYGETGVPVPPFGCTFSSAPNMEHVLAVANEEGFVRLYNTESQSFRKKCFKEWMAHWNAVFDLAWVPGELKLVTAAGDQTAKFWDVKAGELIGTCKGHQCSLKSVAFSKFEKAVFCTGGRDGNIMVWDTRCNKKDGFYRQVNQISGAHNTSDKQTPSKPKKKQNSKGLAPSVDFQQSVTVVLFQDENTLVSAGAVDGIIKVWDLRKNYTAYRQEPIASKSFLYPGSSTRKLGYSSLILDSTGSTLFANCTDDNIYMFNMTGLKTSPVAIFNGHQNSTFYVKSSLSPDDQFLVSGSSDEAAYIWKVSTPWQPPTVLLGHSQEVTSVCWCPSDFTKIATCSDDNTLKIWRLNRGLEEKPGGDKLSTVGWASQKKKESRPGLVTVTSSQSTPAKAPRAKCNPSNSSPSSAACAPSCAGDLPLPSNTPTFSIKTSPAKARSPINRRGSVSSVSPKPPSSFKMSIRNWVTRTPSSSPPITPPASETKIMSPRKALIPVSQKSSQAEACSESRNRVKRRLDSSCLESVKQKCVKSCNCVTELDGQVENLHLDLCCLAGNQEDLSKDSLGPTKSSKIEGAGTSISEPPSPISPYASESCGTLPLPLRPCGEGSEMVGKENSSPENKNWLLAMAAKRKAENPSPRSPSSQTPNSRRQSGKKLPSPVTITPSSMRKACTAAHRKSQEDFCGPEHSTEL
modifications: FLAG tag
notes: Cdt2 with I709, Y712, and F713 all mutated to alanine

Experiments:
Assay type in all cases: cell-based, human
[1] = system: Cdt1 poly-ubiquitination; experiment: Poly-ubiquitination of Cdt1 in HEK293 cells; conditions: for poly-ubiquitinated Cdt1 level: HEK293, MG132 3 h, asynchronous; for poly-ubiquitination of Cdt1 after UV: HEK293, endogenous Cdt2 depleted (siCdt2), MG132 25 μM, UV 20 J/m^2
Procedure: (§1) Figure 6. The Cdt2 PIP box is important for its recruitment to DNA damage sites and replication foci and for poly-ubiquitination activity. (A) HEK293 and stable Cdt2^WT or Cdt2^PIP-3A cells were locally UV irradiated, and stained for XPA and FLAG (Cdt2). XPA-positive spots were examined for FLAG signal, and its frequency was counted (%). More than 50 spots were examined. bar:10 μm. […] Bar: 10 μm. […] (D) Whole-cell extracts were prepared from HEK293 and stably transfected cells of Cdt2^WT or Cdt2^PIP-3A cells, separated into soluble (Sup) and chromatin-containing insoluble (Ppt) fractions, and were examined for indicated proteins. The asterisk indicates nonspecific bands. (E) HEK293 and stably transfected cells of Cdt2^WT or Cdt2^PIP-3A were treated with MG132 for 3 h. Whole-cell extracts (WCE) were prepared, separated into soluble (Sup) and insoluble (Ppt) fractions, and blotted with the indicated antibodies.
Figure S6. Cdt2 PIP box is important for its recruiting to DNA replication sites and its poly-ubiquitination activity in HEK293 cells. […] (B) Poly-ubiquitination after UV irradiation. HEK293 and its stables expressing Cdt2^WT or Cdt2^PIP-3A were transfected with siCdt2 or control (siLuc). Three days later, cells were treated with MG132 (25 μM), and 10 min later irradiated with UV (20 J/m^2). Cells were collected at the indicated time points, and used for Western blotting with indicated antibodies.
To consider this possibility, asynchronously growing control HEK293 cells and cells expressing Cdt2^WT or Cdt2^PIP-3A were treated with proteasome inhibitor MG132 and the levels of poly-ubiquitinated Cdt1 were examined. […] Cdt2^PIP-3A-expressing cells however had reduced level of both poly-ubiquitinated Cdt1 and p21 on chromatin.
Next, we examined the accumulation of poly-ubiquitinated Cdt1 after UV irradiation. For this experiment, the endogenous Cdt2 was depleted with an siRNA targeted to the 3′ UTR to assay for the activity of introduced Cdt2. Cells were treated with MG132, irradiated with UV and the levels of poly-ubiquitinated Cdt1 were monitored by Western blotting. In HEK293 cells treated with control siRNA, poly-ubiquitinated Cdt1 was detected 15 min after irradiation (Fig S6B). […] The defect was rescued by Cdt2^WT expression.

[2] = system: HEK293 cells, PCNA foci; experiment: Co-localization of Cdt2 with PCNA foci (S phase) in HEK293 cells; conditions: stable HEK293, asynchronous, pre-extracted
Description: XPA, a component of nucleotide excision repair, staining was used to confirm that similar extents of DNA damage were induced both in Cdt2^WT- and Cdt2^PIP-3A-expressing cells. […] A similar percentage of PCNA-positive S-phase cells was detected both in Cdt2^1–730/WT-expressing cells and Cdt2^PIP-3A-expressing cells (Fig S6). […] More than 80% of PCNA-positive cells were co-stained with Cdt2^WT, with the early S-phase cells displaying stronger Cdt2^WT staining than the late S-phase cells as reported ([Nukina et al, 2018]) (Figs 6B and C, and S6A).
as §1, with “(E) HEK293 and stably transfected cells of Cdt2^WT or Cdt2^PIP-3A were treated with MG132 for 3 h. Whole-cell extracts (WCE) were prepared, separated into soluble (Sup) and insoluble (Ppt) fractions, and blotted with the indicated antibodies.” left out
For Western blotting, whole-cell lysates were prepared by lysing cell pellets directly in SDS–PAGE buffer. […] Protein levels were analysed by ImageJ software.

[3] = system: PCNA; experiment: Co-immunoprecipitation of PCNA with FLAG-tagged Cdt2 constructs; conditions: for interaction with PCNA (reverse IP, anti-Myc): Myc-PCNA co-transfected, HEK293; for interaction with PCNA (anti-FLAG IP): cross-linked cells, 3FLAG fusions, no UV
Description: Before cell lysate preparation, cells were cross-linked.
Figure 3. […] HEK293 cells were transfected with plasmids expressing the indicated Cdt2 fused to a C-terminal FLAG tag, cross-linked, and precipitated with anti-FLAG antibodies (arrows). […] The bands in the blank lanes for Cul4A blotting correspond to the cross-reacting bands to pre-stained marker. […] HEK293 cells were transfected with the indicated plasmids and treated as in A. * indicates nonspecific bands derived from IgGs. (C) A schematic drawing of the Cdt2 domain structure highlighting the C-terminal PIP box and a sequence alignment of PIP boxes in various organisms. The alanine-changed PIP box mutant of Cdt2 was shown (PIP-3A) together with Cdt1 PIP box. (D) HEK293 cells were transfected with Cdt2^WT or PIP box mutant (Cdt2^PIP-3A) C-terminally fused to a FLAG tag, treated as in B, and Cdt2 was precipitated with anti-FLAG resin.
Control or Cdt2-FLAG expressing 293 cells that were UV irradiated (50 J/m^2), or not UV irradiated, or in the middle S phase (5 h after release from aphidicolon arrest) were fixed with 0.02% formaldehyde for 10 min, lysed using 0.1% Triton X-100-containing modified cytoskeleton (mCSK) buffer (10 mM Pipes, pH 7.9, 100 mM NaCl, 300 mM sucrose, 0.1% [vol/vol] Triton X-100, 1 mM phenylmethylsulfonyl fluoride, 10 mM β-glycerophosphate, 1 mMNa3VO4, 10 mM NaF), and then sonicated. After centrifugation (120,000g, Beckman Type 45Ti rotor, for 20 min at 4°C), the supernatants were mixed with anti-FLAG antibody-conjugated magnetic beads (M8823; Sigma-Aldrich) for 1 h at 4°C to obtain immunoprecipitates. The precipitate was washed with ice-cold 0.1% Triton X-100 containing mCSK buffer and subsequently suspended in SDS sample buffer.

Molecule | poly-ubiquitinated Cdt1 level [1] | poly-ubiquitination of Cdt1 after UV [1] | PCNA-positive cells co-stained with Cdt2 [2] | interaction with PCNA (reverse IP, anti-Myc) [3] | interaction with PCNA (anti-FLAG IP) [3] | Cdt2 signal in PCNA foci [2]
Cdt2: Cdt2 tagged with GFP, transiently expressed in MCF7 cells | clearly detected | rescued | More than 80% | co-precipitated with Myc-PCNA | interact with PCNA | 
B1 | reduced | defective in poly-ubiquitination of Cdt1 |  | not detected in the precipitates | lost almost entirely | almost no signal was detected
